Tested on: Dihydrofolate reductase (Enterococcus faecium)

Compound | -Delta G
Cc1c(CNc2ccc(C(=O)O)cc2)ccc2nc(N)nc(N)c12 | 49.4 kJ/mol
Nc1nc(N)c2c(CSc3ccc(Cl)cc3)cccc2n1 | 45.6 kJ/mol
Cc1c(NCc2ccc(C(=O)O)cc2)ccc2nc(N)nc(O)c12 | 27.2 kJ/mol
CCOC(=O)c1ccc(NCc2ccc3nc(N)nc(N)c3c2)cc1 | 47.7 kJ/mol
CCOC(=O)c1ccc(CNc2ccc3nc(N)nc(O)c3c2Cl)cc1 | 38.9 kJ/mol
Nc1nc(O)c2cc(CNc3ccc(C(=O)O)cc3)ccc2n1 | 36.8 kJ/mol
Nc1nc(N)c2c(Cl)c(CNc3ccc(C(=O)O)cc3)ccc2n1 | 51.5 kJ/mol
O=c1[nH]c(=S)c2cc(Sc3ccc4ccccc4c3)ccc2[nH]1 | 28.5 kJ/mol
Cc1c(CNc2ccc(C(=O)NC(CC(=O)O)C(=O)O)cc2)ccc2nc(N)nc(N)c12 (stereo not drawn) | 53.1 kJ/mol
Nc1nc(N)c2c(S(=O)(=O)c3ccc(Cl)c(Cl)c3)cccc2n1 | 37.7 kJ/mol
CCOC(=O)c1ccc(NCc2ccc3nc(N)nc(O)c3c2)cc1 | 44.4 kJ/mol
CCCCOC(=O)c1ccc(NCc2ccc3nc(N)nc(N)c3c2Cl)cc1 | 47.7 kJ/mol
CCOC(=O)c1ccc(CNc2ccc3nc(N)nc(O)c3c2)cc1 | 36 kJ/mol
Nc1nc(N)c2c(Sc3ccc(Cl)c(Cl)c3)cccc2n1 | 41.4 kJ/mol
CCOC(=O)c1ccc(NCc2ccc3nc(N)nc(N)c3c2C)cc1 | 51.5 kJ/mol
Nc1nc(O)c2cc(S(=O)(=O)c3ccc(Cl)c(Cl)c3)ccc2n1 | 34.3 kJ/mol
CCOC(=O)c1ccc(CNc2ccc3nc(N)nc(N)c3c2)cc1 | 46 kJ/mol
Nc1nc(N)c2cc(CNc3ccc(C(=O)O)cc3)ccc2n1 | 54.4 kJ/mol
CCOC(=O)c1ccc(CNc2ccc3nc(N)nc(O)c3c2C)cc1 | 29.7 kJ/mol
O=c1[nH]c(=O)c2cc(Sc3ccc4ccccc4c3)ccc2[nH]1 | 28.9 kJ/mol
CCOC(=O)c1ccc(CNc2ccc3nc(N)nc(N)c3c2Cl)cc1 | 51 kJ/mol
Nc1nc(N)c2cc(S(=O)(=O)c3ccc(Cl)c(Cl)c3)ccc2n1 | 56.1 kJ/mol
Nc1nc(N)c2cc(Sc3cccc(C(F)(F)F)c3)ccc2n1 | 56.1 kJ/mol
CCCCOC(=O)c1ccc(NCc2ccc3nc(N)nc(N)c3c2)cc1 | 46.9 kJ/mol
CCOC(=O)c1ccc(CNc2ccc3nc(N)nc(N)c3c2C)cc1 | 54.8 kJ/mol
Nc1nc(O)c2cc(Sc3ccc(Cl)c(Cl)c3)ccc2n1 | 38.1 kJ/mol
Nc1nc(O)c2cc(NCc3ccc(C(=O)O)cc3)ccc2n1 | 30.1 kJ/mol
CCOC(=O)c1ccc(NCc2ccc3nc(N)nc(N)c3c2Cl)cc1 | 53.6 kJ/mol
CCCCOC(=O)c1ccc(NCc2ccc3nc(N)nc(N)c3c2C)cc1 | 50.6 kJ/mol

More lines, now with the values ahead:

-Delta G | Compound
25.9 kJ/mol | Oc1nc(S)nc2ccc(Sc3ccc4ccccc4c3)cc12
25.1 kJ/mol | Sc1nc(S)c2cc(Sc3ccc4ccccc4c3)ccc2n1
30.1 kJ/mol | Nc1ncnc2ccc([S+]([O-])c3ccc4ccccc4c3)cc12 (stereo not drawn)
28.9 kJ/mol | Nc1nc(N)c2c([S+]([O-])c3ccc4ccccc4c3)cccc2n1 (stereo not drawn)
24.3 kJ/mol | Nc1ncnc2ccc(S(=O)(=O)c3ccc4ccccc4c3)cc12
33.5 kJ/mol | Nc1nc(S)c2cc(S(=O)(=O)c3ccc4ccccc4c3)ccc2n1
27.2 kJ/mol | Nc1ncnc2ccc(Sc3ccc4ccccc4c3)cc12
34.3 kJ/mol | Nc1nc(O)c2cc([S+]([O-])c3ccc4ccccc4c3)ccc2n1 (stereo not drawn)
44.8 kJ/mol | Nc1nc(N)c2c(/C=C/c3ccc4ccccc4c3)cccc2n1
42.7 kJ/mol | Nc1nc(O)c2cc(Sc3ccc4ccccc4c3)ccc2n1
38.9 kJ/mol | Nc1nc(S)c2cc(Sc3ccc4ccccc4c3)ccc2n1
51 kJ/mol | Nc1nc(N)c2cc(Sc3ccc(Cl)c(Cl)c3)ccc2n1
49.8 kJ/mol | Nc1nc(N)c2c(CCc3ccc4ccccc4c3)cccc2n1
51.9 kJ/mol | Nc1nc(N)c2cc(S(=O)(=O)c3ccc4ccccc4c3)ccc2n1
31 kJ/mol | Nc1nc(O)c2c(Sc3ccc4ccccc4c3)cccc2n1
53.6 kJ/mol | Nc1nc(N)c2cc([S+]([O-])c3ccc4ccccc4c3)ccc2n1 (stereo not drawn)
45.6 kJ/mol | Nc1nc(N)c2c(Sc3ccc4ccccc4c3)cccc2n1
46.4 kJ/mol | Nc1nc(N)c2c(/C=C\c3ccc4ccccc4c3)cccc2n1
30.5 kJ/mol | Nc1nc(N)c2c([S+]([O-])c3ccc(Cl)c(Cl)c3)cccc2n1 (stereo not drawn)
40.2 kJ/mol | Nc1nc(O)c2cc(S(=O)(=O)c3ccc4ccccc4c3)ccc2n1
28.9 kJ/mol | Nc1nc(O)nc2ccc(Sc3ccc4ccccc4c3)cc12
31 kJ/mol | Nc1nc(S)nc2ccc(Sc3ccc4ccccc4c3)cc12
37.7 kJ/mol | Nc1nc(O)c2c(S(=O)(=O)c3ccc4ccccc4c3)cccc2n1
27.2 kJ/mol | Nc1nc(N)c2c(S(=O)(=O)c3ccc4ccccc4c3)cccc2n1

From ChEMBL document CHEMBL1122106, “Quantitative structure-activity relationship by distance geometry: quinazolines as dihydrofolate reductase inhibitors” (J Med Chem, 1982)
